Earlier results, collected in patent publication EP4759311A1, “TRPM8 INHIBITORS FOR USE IN THE PREVENTION OR TREATMENT OF JOINT DAMAGE, JOINT DEGENERATION AND/OR JOINT INFLAMMATION CAUSED BY OSTEOARTHRITIS” (Dompé farmaceutici SpA, priority 2024, dated 2026).

Target: TRPM8 (Homo sapiens, UniProt Q7Z2W7)
Details: TRPM8 inhibitor; no method given

TRPM8, sequence (Q7Z2W7 whole entry, species assumed): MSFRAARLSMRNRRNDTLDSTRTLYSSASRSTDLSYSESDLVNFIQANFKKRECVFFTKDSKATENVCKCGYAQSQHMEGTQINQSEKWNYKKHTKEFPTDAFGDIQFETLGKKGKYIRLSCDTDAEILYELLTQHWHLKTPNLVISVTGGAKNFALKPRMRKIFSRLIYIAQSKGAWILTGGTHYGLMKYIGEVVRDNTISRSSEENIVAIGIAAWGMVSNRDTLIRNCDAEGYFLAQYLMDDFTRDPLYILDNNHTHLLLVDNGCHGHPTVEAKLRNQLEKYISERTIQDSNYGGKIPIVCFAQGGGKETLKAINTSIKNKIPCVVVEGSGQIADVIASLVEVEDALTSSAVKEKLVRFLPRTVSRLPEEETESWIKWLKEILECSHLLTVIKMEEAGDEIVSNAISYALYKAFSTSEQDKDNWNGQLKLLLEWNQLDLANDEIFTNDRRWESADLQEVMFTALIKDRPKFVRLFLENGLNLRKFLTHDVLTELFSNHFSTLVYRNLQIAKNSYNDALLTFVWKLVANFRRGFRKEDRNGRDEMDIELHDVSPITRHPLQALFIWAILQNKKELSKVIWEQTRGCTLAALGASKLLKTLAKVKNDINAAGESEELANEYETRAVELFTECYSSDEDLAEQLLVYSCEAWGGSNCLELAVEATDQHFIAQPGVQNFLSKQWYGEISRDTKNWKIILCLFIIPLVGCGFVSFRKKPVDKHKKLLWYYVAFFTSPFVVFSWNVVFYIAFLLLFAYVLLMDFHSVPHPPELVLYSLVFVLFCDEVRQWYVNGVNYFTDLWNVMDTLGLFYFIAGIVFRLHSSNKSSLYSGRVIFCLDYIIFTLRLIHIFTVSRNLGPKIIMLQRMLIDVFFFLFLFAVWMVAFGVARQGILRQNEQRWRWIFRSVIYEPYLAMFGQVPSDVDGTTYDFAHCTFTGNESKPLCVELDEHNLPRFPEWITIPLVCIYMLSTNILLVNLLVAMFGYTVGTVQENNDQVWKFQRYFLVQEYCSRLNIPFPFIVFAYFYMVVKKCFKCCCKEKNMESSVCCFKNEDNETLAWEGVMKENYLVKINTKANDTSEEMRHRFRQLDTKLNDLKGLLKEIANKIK

Compound	IC50
O=C(O)c1ccc(S(=O)(=O)N(Cc2ccc(OC(F)(F)F)cc2)c2ncc(C(F)(F)F)cc2Cl)cc1 [RQ-00203078, 4-[[[3-Chloro-5-(trifluoromethyl)-2-pyridinyl][[4-(trifluoromethoxy)phenyl]methyl]amino]sulfonyl]benzoic acid]	5.3 nM
COC(=O)[C@H](Cc1c[nH]c2ccccc12)N(Cc1ccccc1)Cc1ccccc1 [TRPM8 antagonist 2, N,N-Bis(phenylmethyl)-L-tryptophan methyl ester]	0.2 nM
